Measurements taken from patent US10577315B2, “Compositions and methods for treatment of prostate carcinoma” (Pellficure Pharmaceuticals, Inc., priority 2014, dated 2020).

Assays:
[1] = system: H2B-GFP-PTEN-P2 tumor cells; assay: In vivo effect combined with castration in the pseudo-orthotopic chamber model for prostate cancer; parameters: species or system mouse; conditions: orally once a day in sesame seed oil, equimolar to 1 mg/kg plumbagin, castrated male nu/nu mice
Excerpt: A syngeneic pseudo-orthotopic in vivo model was developed to study the early steps of prostate cancer. Chambers are surgically placed into the dorsal skinfold of male mice. Briefly, male mice (25-30 g body weight) are anesthetized and placed on a heating pad. Two symmetrical titanium frames are implanted into the dorsal skinfold. A circular layer is excised from one of the skin layers. The underlying muscle and subcutaneous tissues are covered with a glass coverslip incorporated in one of the frames. After a recovery period of 2-3 days, stoma tissue and tumor cells are carefully placed in the chamber.
Male Nude mice (25-35 g body weight) are anesthetized (7.3 mg ketamine hydrochloride and 2.3 mg xylazine/100 g body weight, i.p.) and placed on a heating pad. Two symmetrical titanium frames are implanted into a dorsal skinfold, so as to sandwich the extended double layer of skin. […]
Liquid overlay plates are generated using 1% Agarose melted in DMEM that is added to round-bottom 96-well plates (50 ul/well). […] Viability is determined using Trypan blue. […]. The size of the implanted spheroid can be determined precisely to minimize variations between animals. […]
Fluorescence microscopy is performed using a Mikron Instrument Microscope equipped with epi-illuminator and video-triggered stroboscopic illumination from a xenon arc (MV-7600, EG&G). […]

[2] = system: PTEN-P2/GFP prostate cancer cells; assay: Effect of 1,4-naphthoquinone analogs on PTEN-P2/GFP cell proliferation (WST-1 cell viability, 24 h); type: cell-based; conditions: Mus musculus, WST-1, medium with 10% FBS and DHT, read-out: PTEN-P2/GFP cell proliferation, percent of control
In short: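 PTEN-P2/GFP cells, 8000/well, in medium with 10% FBS and 10^−8M DHT, dosed next day with increasing analog concentrations (constant DMSO) for 24 h at 37 °C, 5% CO2. Viability read by WST-1 after 3 h at 37 °C, OD at 460 nm.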

[3] = system: human fibrosarcoma HT1080 cells; assay: Dose response of 1,4-naphthoquinone analogs in human fibrosarcoma cells HT1080 (WST-1, 24 h); type: cell-based
Method: (§1) 100 microliters of human fibrosarcoma HT1080 cells were plated at a density of 8000 cells/well in 96-well plates (triplicates) in growing medium containing 10% Fetal Bovine Serum, penicillin/streptomycin, and glutamine. The next day, increasing concentrations of a 1,4-naphthoquinone analog (diluted from 10 mM DMSO stock solutions) were added. DMSO used as solvent for all analogs, was kept constant through the 96-well plates. The control consisted of DMSO alone. The cells were subsequently incubated for 24 hours at 37° C. and 5% CO2 in normal cell growth conditions. Cell viability was assessed by adding 9 μL/well of WST-1 reagent (Clontech), which measured mitochondrial activity of live cells. […] The incubation time was 3 hours at 37° C. Optical density of the cell samples was measured at 460 nm, by using plate reader Spectra Max 250 (Molecular Devices). The drug was determined to be cytotoxic when OD values show an inverse correlation with analog concentrations.

[4] = system: human breast cancer SKBR-3 cells; assay: Dose response of 1,4-naphthoquinone analogs in human breast cancer cells SKBR-3 (WST-1, 24 h); type: cell-based
Method: as §1, with “breast cancer SKBR-3” for “fibrosarcoma HT1080”

| SMILES | in vivo efficiency of combination treatment with castration compared with plumbagin and castration (FIG. 9) [1] | activity at 2 µM [2] | activity at 3 µM [2] | activity at 4 µM [2] | activity at 5 µM [2] | activity at 6 µM [2] | activity at 7 µM [2] | activity at 10 µM [2] | activity at 25 µM [2] | proliferation of human fibrosarcoma HT1080 cells, percent of control ([3]; 1.2 μM) | proliferation of human fibrosarcoma HT1080 cells, percent of control ([3]; 2.5 μM) | proliferation of human fibrosarcoma HT1080 cells, percent of control ([3]; 5 μM) | proliferation of human fibrosarcoma HT1080 cells, percent of control ([3]; 7.5 μM) | proliferation of human fibrosarcoma HT1080 cells, percent of control ([3]; 10 μM) | proliferation of human fibrosarcoma HT1080 cells, percent of control ([3]; 15 μM) | proliferation of human fibrosarcoma HT1080 cells, percent of control ([3]; 20 μM) | human SKBR-3 cell proliferation, percent of control ([4]; 1.2 μM) | human SKBR-3 cell proliferation, percent of control ([4]; 2.5 μM) | human SKBR-3 cell proliferation, percent of control ([4]; 5 μM) | human SKBR-3 cell proliferation, percent of control ([4]; 7.5 μM) | other results |
| --- | --- | --- | --- | --- | --- | --- | --- | --- | --- | --- | --- | --- | --- | --- | --- | --- | --- | --- | --- | --- | --- |
| COc1cccc2c1C(=O)C=CC2=O [Analog F51, 5-methoxy-1,4-naphthoquinone] | more efficient in vivo than treatment with plumbagin and castration | 104% | 105% | 105% | 103% | 94% | 85.7% | 43.4% | 9.58% | – | – | – | – | – | – | – | – | – | – | – | activity at 1 µM ([2]; 1 μM): 103%; activity at 50 µM ([2]; 50 μM): 10.3% |
| O=C1C=C(Oc2c(F)cc(F)cc2F)C(=O)c2ccccc21 [Analog F04, 2-(2,4,6-trifluorophenoxy)-1,4-naphthoquinone] | – | – | – | – | 83.3% | – | – | 2.09% | – | 87.77% of control | 81.64% of control | 78.43% of control | 84.86% of control | 76.41% of control | 69.17% of control | 63.51% of control | 86.74% of control | 83.72% of control | 74.38% of control | 65.90% of control | human SKBR-3 cell proliferation, percent of control ([4]; 10 μM): 7.52% of control; human SKBR-3 cell proliferation, percent of control ([4]; 15 μM): 1.20% of control; human SKBR-3 cell proliferation, percent of control ([4]; 20 μM): 1.90% of control; activity at 1.2 µM ([2]; 1.2 μM): 101%; activity at 2.5 µM ([2]; 2.5 μM): 101%; activity at 7.5 µM ([2]; 7.5 μM): 17.6%; activity at 15 µM [2]: 1.47%; activity at 20 µM ([2]; 20 μM): 2.64% |
| O=C1C=C(Nc2ccccc2)C(=O)c2ccccc21 [Analog F35, 2-(phenylamino)naphthalene-1,4-dione] | more efficient in vivo than treatment with plumbagin and castration | – | – | – | – | – | – | – | – | – | – | – | – | – | – | – | – | – | – | – | – |
| Cc1cc(Cl)ccc1OC1=CC(=O)c2ccccc2C1=O [Analog F07, 2-(4-chloro-2-methylphenoxy)-1,4-naphthoquinone] | – | 101% | 102% | 101% | 96% | 88.4% | 81.8% | 36.3% | 12.5% | 85.35% of control | 89.16% of control | 76.04% of control | 68.43% of control | 69.89% of control | 67.89% of control | 69.50% of control | 143.50% of control | 160.12% of control | 131.48% of control | 68.35% of control | human SKBR-3 cell proliferation, percent of control ([4]; 10 μM): 12.78% of control; human SKBR-3 cell proliferation, percent of control ([4]; 15 μM): 2.70% of control; human SKBR-3 cell proliferation, percent of control ([4]; 20 μM): 6.29% of control; activity at 15 µM [2]: 19.4% |
